# Experimental data reported in ChEMBL document CHEMBL1129925, “Synthesis and antiviral evaluation of 4-hydroxymethyl-2, 3-dideoxy-3-thianucleosides and their cyclic monophosphates” (Bioorg Med Chem Lett, 1997).
# Activity calls are given as the source filed them. The calls are words filed in the database; no cut-off is given here.
# How the values were obtained:
# [1] = test system: CEM-SS; assay: Tested for anti-HIV activity in CEM-SS cell line; Inactive; assay type: functional, cell-based; settings: Homo sapiens
# [2] = test system: MT4; assay: Antiviral activity in MT-4 cells expressed as CC50; assay type: functional; settings: Homo sapiens
# [3] = test system: MT4; assay: Antiviral activity in MT-4 cells expressed as IC50; assay type: functional, cell-based, Homo sapiens
# [4] = test system: H9; assay: Antiviral activity in H9 cells expressed as IC50; assay type: functional, cell-based; settings: Homo sapiens
# [5] = Antiviral activity in PBM cells expressed as IC50; assay type: functional, cell-based, Homo sapiens
# [6] = Antiviral activity in PBM cells expressed as CC50; assay type: functional; settings: Homo sapiens, PBMC
# [7] = test system: CD-4+ (A 3.01); assay: Antiviral activity in CD-4+ (A 3.01) cell line expressed as CC50; assay type: functional
# [8] = test system: CD-4+ (A 3.01); assay: Antiviral activity in CD-4+ (A 3.01) cell line expressed as IC50; assay type: functional, cell-based
# [9] = test system: MT4; assay: Antiviral activity in MT-4 cells; assay type: functional, cell-based; settings: Homo sapiens
# [10] = test system: CCRF-CEM; assay: Cytotoxicity against CEM cells; assay type: functional; settings: Homo sapiens
# [11] = Cytotoxicity against PBM cells; assay type: functional; settings: Homo sapiens, PBMC
# [12] = Antiviral activity in PBM cells; assay type: functional, cell-based; settings: Homo sapiens, PBMC
# [13] = test system: MT4; assay: Cytotoxicity against MT-4 cells; assay type: functional; settings: Homo sapiens
# [14] = test system: CCRF-CEM; assay: Antiviral activity in CEM cells expressed as CC50; assay type: functional; settings: Homo sapiens
smiles,measurement,setting,value
Nc1ccn(C2CSC3(COP(=O)(O)OC3)O2)c(=O)n1 (centres undefined),Anti-HIV activity,[1],inactive
Nc1ccn([C@@H]2CS[C@H](CO)O2)c(=O)n1 (racemic) [LAMIVUDINE],CC50,[2],405000 nM
same,IC50,"[3]; Homo sapiens, MT4",370 nM
Nc1ccn(C2CSC(CO)(CO)O2)c(=O)n1 (centres undefined),Anti-HIV activity,[1],inactive
Nc1ccn(C2CC(CO)C(CO)O2)c(=O)n1 (centres undefined),IC50,[4],10 nM
Cc1cn(C2CSC3(COP(=O)(O)OC3)O2)c(=O)[nH]c1=O (centres undefined),Anti-HIV activity,[1],inactive
Nc1ccn([C@@H]2CS[C@H](CO)O2)c(=O)n1 (stereo in doubt; (+)) [LAMIVUDINE],IC50,[5],210 nM
same,CC50,[6],> 100000 nM
Cc1cn([C@H]2C[C@H](O)[C@](CO)(N=[N+]=[N-])O2)c(=O)[nH]c1=O,CC50,[7],8000 nM
same,IC50,[8],10 nM
"Nc1ccn([C@@H]2CS[C@H](CO)O2)c(=O)n1 (single isomer, unassigned) [LAMIVUDINE]",IC50,[9],370 nM
same,CC50,[10],363000 nM
same,CC50,[11],> 100000 nM
same,IC50,[12],210 nM
same,CC50,[13],407000 nM
Cc1cn(C2CSC(CO)(CO)O2)c(=O)[nH]c1=O (centres undefined),Anti-HIV activity,[1],inactive
Nc1ccn([C@@H]2CS[C@H](CO)O2)c(=O)n1 (stereo in doubt; (-)) [LAMIVUDINE],CC50,[14],363000 nM
same,IC50,[5],2 nM
same,IC50,[3]; mt4,610 nM
